{"source": "patent US6066310A", "about": "“Diagnostic and therapeutic method for tumor using radiolabeled avidin” (Nihon Medi-Physics Co., Ltd., priority 1997, dated 2000)", "conditions": "2 hours after biotin, LS180 xenografted mice", "procedure": "LS 180-tumor xenografted mice received injection with 300 μg unlabeled avidin and 1-24 hours later injection with 0.3 μg In-111 labeled biotin. […] After 2 hours from the injection of biotin, 4-5 mice per group were sacrificed and measured for distribution of radioactivity.", "key": {"[1]": {"conditions": "biotin 1 hr after pre-targeting of avidin"}, "[2]": {"conditions": "biotin 4 hr after pre-targeting of avidin"}, "[3]": {"conditions": "biotin 8 hr after pre-targeting of avidin"}, "[4]": {"conditions": "biotin 24 hr after pre-targeting of avidin"}, "[5]": {"conditions": "without pre-targeting of avidin"}}, "note": "Read-outs that look alike come from different tables or passages of the source."}
{"smiles": "O=C([O-])CN(CCN(CC(=O)[O-])CC(=O)NC(CCCCNC(=O)CCCCC1SCC2NC(=O)NC21)C(=O)O)CCN(CC(=O)[O-])CC(=O)NC(CCCCNC(=O)CCCCC1SCC2NC(=O)NC21)C(=O)O.[111In+3]", "note": "(stereo not drawn) [radiolabeled biotin]", "values": [{"measurement": "Tumor/Blood ratio of radioactivity", "setting": "[1]", "result": "160.3 ± 26.9"}, {"measurement": "Tumor/Bone ratio of radioactivity", "setting": "[1]", "result": "60.7 ± 13.7"}, {"measurement": "Tumor/Kidney ratio of radioactivity", "setting": "[1]", "result": "3.48 ± 0.94"}, {"measurement": "Tumor/Liver ratio of radioactivity", "setting": "[1]", "result": "4.19 ± 1.45"}, {"measurement": "Tumor/Spleen ratio of radioactivity", "setting": "[1]", "result": "5.14 ± 2.58"}, {"measurement": "radioactivity per 1 g of organ: Blood", "setting": "[1]", "result": "0.38 ± 0.08"}, {"measurement": "radioactivity per 1 g of organ: Bone", "setting": "[1]", "result": "0.99 ± 0.08"}, {"measurement": "radioactivity per 1 g of organ: Intestine", "setting": "[1]", "result": "1.03 ± 0.30"}, {"measurement": "radioactivity per 1 g of organ: Kidney", "setting": "[1]", "result": "17.44 ± 2.16"}, {"measurement": "radioactivity per 1 g of organ: Liver", "setting": "[1]", "result": "14.77 ± 2.84"}, {"measurement": "radioactivity per 1 g of organ: Lung", "setting": "[1]", "result": "1.07 ± 0.91"}, {"measurement": "radioactivity per 1 g of organ: Muscle", "setting": "[1]", "result": "0.10 ± 0.06"}, {"measurement": "radioactivity per 1 g of organ: Spleen", "setting": "[1]", "result": "12.85 ± 4.02"}, {"measurement": "radioactivity per 1 g of organ: Stomach", "setting": "[1]", "result": "3.24 ± 0.63"}, {"measurement": "radioactivity per 1 g of organ: Tumor", "setting": "[1]", "result": "59.28 ± 9.89"}, {"measurement": "Tumor/Blood ratio of radioactivity", "setting": "[2]", "result": "159.0 ± 50.9"}, {"measurement": "Tumor/Bone ratio of radioactivity", "setting": "[2]", "result": "107.3 ± 79.1"}, {"measurement": "Tumor/Kidney ratio of radioactivity", "setting": "[2]", "result": "12.26 ± 2.75"}, {"measurement": "Tumor/Liver ratio of radioactivity", "setting": "[2]", "result": "20.89 ± 5.43"}, {"measurement": "Tumor/Spleen ratio of radioactivity", "setting": "[2]", "result": "22.03 ± 9.18"}, {"measurement": "radioactivity per 1 g of organ: Blood", "setting": "[2]", "result": "0.25 ± 0.03"}, {"measurement": "radioactivity per 1 g of organ: Bone", "setting": "[2]", "result": "0.60 ± 0.45"}, {"measurement": "radioactivity per 1 g of organ: Intestine", "setting": "[2]", "result": "0.27 ± 0.06"}, {"measurement": "radioactivity per 1 g of organ: Kidney", "setting": "[2]", "result": "3.30 ± 0.94"}, {"measurement": "radioactivity per 1 g of organ: Liver", "setting": "[2]", "result": "1.92 ± 0.58"}, {"measurement": "radioactivity per 1 g of organ: Lung", "setting": "[2]", "result": "0.32 ± 0.11"}, {"measurement": "radioactivity per 1 g of organ: Muscle", "setting": "[2]", "result": "0.32 ± 0.22"}, {"measurement": "radioactivity per 1 g of organ: Spleen", "setting": "[2]", "result": "2.14 ± 1.24"}, {"measurement": "radioactivity per 1 g of organ: Stomach", "setting": "[2]", "result": "1.08 ± 0.44"}, {"measurement": "radioactivity per 1 g of organ: Tumor", "setting": "[2]", "result": "39.31 ± 11.3"}, {"measurement": "Tumor/Blood ratio of radioactivity", "setting": "[3]", "result": "52.6 ± 23.9"}, {"measurement": "Tumor/Bone ratio of radioactivity", "setting": "[3]", "result": "59.22 ± 35.9"}, {"measurement": "Tumor/Kidney ratio of radioactivity", "setting": "[3]", "result": "7.18 ± 2.66"}, {"measurement": "Tumor/Liver ratio of radioactivity", "setting": "[3]", "result": "48.14 ± 20.2"}, {"measurement": "Tumor/Spleen ratio of radioactivity", "setting": "[3]", "result": "40.87 ± 15.0"}, {"measurement": "radioactivity per 1 g of organ: Blood", "setting": "[3]", "result": "0.20 ± 0.03"}, {"measurement": "radioactivity per 1 g of organ: Bone", "setting": "[3]", "result": "0.20 ± 0.07"}, {"measurement": "radioactivity per 1 g of organ: Intestine", "setting": "[3]", "result": "0.11 ± 0.02"}, {"measurement": "radioactivity per 1 g of organ: Kidney", "setting": "[3]", "result": "1.41 ± 0.29"}, {"measurement": "radioactivity per 1 g of organ: Liver", "setting": "[3]", "result": "0.21 ± 0.04"}, {"measurement": "radioactivity per 1 g of organ: Lung", "setting": "[3]", "result": "0.19 ± 0.10"}, {"measurement": "radioactivity per 1 g of organ: Muscle", "setting": "[3]", "result": "0.06 ± 0.03"}, {"measurement": "radioactivity per 1 g of organ: Spleen", "setting": "[3]", "result": "0.26 ± 0.13"}, {"measurement": "radioactivity per 1 g of organ: Stomach", "setting": "[3]", "result": "0.13 ± 0.09"}, {"measurement": "radioactivity per 1 g of organ: Tumor", "setting": "[3]", "result": "10.49 ± 5.16"}, {"measurement": "Tumor/Blood ratio of radioactivity", "setting": "[4]", "result": "9.72 ± 2.07"}, {"measurement": "Tumor/Bone ratio of radioactivity", "setting": "[4]", "result": "9.42 ± 2.29"}, {"measurement": "Tumor/Kidney ratio of radioactivity", "setting": "[4]", "result": "1.39 ± 0.40"}, {"measurement": "Tumor/Liver ratio of radioactivity", "setting": "[4]", "result": "11.20 ± 3.77"}, {"measurement": "Tumor/Spleen ratio of radioactivity", "setting": "[4]", "result": "14.75 ± 5.59"}, {"measurement": "radioactivity per 1 g of organ: Blood", "setting": "[4]", "result": "0.15 ± 0.07"}, {"measurement": "radioactivity per 1 g of organ: Bone", "setting": "[4]", "result": "0.17 ± 0.13"}, {"measurement": "radioactivity per 1 g of organ: Intestine", "setting": "[4]", "result": "1.18 ± 1.35"}, {"measurement": "radioactivity per 1 g of organ: Kidney", "setting": "[4]", "result": "1.01 ± 0.23"}, {"measurement": "radioactivity per 1 g of organ: Liver", "setting": "[4]", "result": "0.13 ± 0.02"}, {"measurement": "radioactivity per 1 g of organ: Lung", "setting": "[4]", "result": "0.13 ± 0.06"}, {"measurement": "radioactivity per 1 g of organ: Muscle", "setting": "[4]", "result": "0.12 ± 0.16"}, {"measurement": "radioactivity per 1 g of organ: Spleen", "setting": "[4]", "result": "0.10 ± 0.01"}, {"measurement": "radioactivity per 1 g of organ: Stomach", "setting": "[4]", "result": "1.49 ± 1.61"}, {"measurement": "radioactivity per 1 g of organ: Tumor", "setting": "[4]", "result": "1.45 ± 0.70"}, {"measurement": "Tumor/Blood ratio of radioactivity", "setting": "[5]", "result": "5.78 ± 2.44"}, {"measurement": "Tumor/Bone ratio of radioactivity", "setting": "[5]", "result": "5.97 ± 3.51"}, {"measurement": "Tumor/Kidney ratio of radioactivity", "setting": "[5]", "result": "0.55 ± 0.22"}, {"measurement": "Tumor/Liver ratio of radioactivity", "setting": "[5]", "result": "3.90 ± 1.32"}, {"measurement": "Tumor/Spleen ratio of radioactivity", "setting": "[5]", "result": "3.94 ± 1.79"}, {"measurement": "radioactivity per 1 g of organ: Blood", "setting": "[5]", "result": "0.12 ± 0.03"}, {"measurement": "radioactivity per 1 g of organ: Bone", "setting": "[5]", "result": "0.25 ± 0.34"}, {"measurement": "radioactivity per 1 g of organ: Intestine", "setting": "[5]", "result": "0.49 ± 0.46"}, {"measurement": "radioactivity per 1 g of organ: Kidney", "setting": "[5]", "result": "1.23 ± 0.21"}, {"measurement": "radioactivity per 1 g of organ: Liver", "setting": "[5]", "result": "0.17 ± 0.05"}, {"measurement": "radioactivity per 1 g of organ: Lung", "setting": "[5]", "result": "0.14 ± 0.05"}, {"measurement": "radioactivity per 1 g of organ: Muscle", "setting": "[5]", "result": "0.20 ± 0.27"}, {"measurement": "radioactivity per 1 g of organ: Spleen", "setting": "[5]", "result": "0.18 ± 0.05"}, {"measurement": "radioactivity per 1 g of organ: Stomach", "setting": "[5]", "result": "0.12 ± 0.03"}, {"measurement": "radioactivity per 1 g of organ: Tumor", "setting": "[5]", "result": "0.70 ± 0.35"}]}
